The test system of this experiment is R-loops in genes containing lengthy CAG repeats, including mutant HTT. Put plainly: DIP assay of R-loops in genes with lengthy CAG repeats, including mutant HTT, in murine neuronal cells. Type of experiment: cell-based, mouse. The conditions noted are these: 30 μM tropolone for 12 hours in Hdh cells. The procedure: Yeast cells were collected after culturing in 2% galactose-containing medium for 12 hours, and then grinded by glass beads in the presence of 300 μl extraction buffer (10 mM Tris-HCl pH 8.0, 10 mM EDTA, 200 mM NaCl, 1% SDS, 2% Triton X-100, 25 units RNase inhibitor). The nucleic acid mixture was subjected to sonication (Bioruptor UCD-200) and extracted by phenol (pH 8.0). Purified chromatin DNA and RNA, with or without RNase H treatment for 90 minutes, was precipitated by monoclonal antibody S9.6 bound to protein G agarose beads. […] The RNA/DNA hybrid (R-loop) signal was analyzed by qPCR and the Quantitative-Comparative CT (MCT) program. In yeast experiments, a pair of primers (Primer-B F and Primer-B R) were used to quantify R-loop signal in the vicinity of CAG repeats and the primer set AMP was used as a control. […] For Hdh^Q7/Q7 and Hdh^Q111/Q111, mouse HTT DIP primer set was used to quantify R-loop signal of the CAG repeating region and Tubal a DIP primer set was included as a control. […]
Please refer to FIG. 7. […] RNA was extracted and analyzed by real-time RT-qPCR to measure the quantity of HTT, SUPT4H and snRNA U6. […] HTT, SUPT4H, TATA-box binding protein (TBP) were measured. […] Analogous to FIG. 7(C), the quantification of HTT protein levels is shown in bottom panel.

Molecules are shown by their SMILES.

In the case of `O=c1cccccc1O` [Tropolone], the “R-loops in genes containing lengthy CAG repeats, including mutant HTT” value is given as “able to increase R-loops”.

For the origin of these results see US11891601B2, “Method to enhance the transcription regulation of SUPT4H on genes containing repetitive nucleotide sequences” (National Yang-Ming University, priority 2018, dated 2024).
